Reference: paper PMC5602130, “Food and Sex-Related Impacts on the Pharmacokinetics of a Single-Dose of Ginsenoside Compound K in Healthy Subjects” (Frontiers in Pharmacology, 2017)
Marks after values point to notes of the source that are not given here.

Assays:
[1] = Food-effect trial: cumulative excretion rate from urine (0-48 h); type: in vivo, human; conditions: single oral 200 mg CK
Experimental: The food-effect trial was an open-label, randomized, two-period, two-treatment crossover trial, carried out from 15 January to 31 March 2015. Subjects (n = 24) were admitted to the clinical facility (Center of Clinical Pharmacology, the Third Xiangya Hospital, Central South University, Changsha, China) and randomized to receive a single 200 mg oral dose of Ginsenoside CK Tablets (4 × 50 mg tablets) either after a 10 h-fasting period or within 30 min after beginning the consumption of a recommended high-fat, high calorie breakfast (150 calories of protein, 250 calories of carbohydrates, 500 to 600 calories of fat; total calories approximately 800–1,000). Tablets were administered with 250 mL of water, to each subject, in each treatment period. Drinking was prohibited for 2 h before and after medication. Apart from this, the amount and time of drinking were not strictly controlled. Subjects had unified, standard meals 4 and 10 h after drug administration. The alternate treatment was conducted after a 14-day washout period. Urine samples were collected 0–24 and 24–48 h after the administration and the volumes were measured immediately after collection. We preserved 8 mL in centrifuge tube for PK assessment, which were stored at −70°C before analysis. Descriptive statistics of PK parameters were calculated using established non-compartmental methods, utilizing the WinNonLin version 6.1 software (Pharsight Corporation, USA). The PK parameters determined for each participant included apparent terminal half-life (t1/2), maximum plasma concentration (Cmax), time to Cmax (tmax), area under the plasma concentration-time curve from the time of administration up to the last time point with a measurable concentration post-dose (AUClast), AUC extrapolated to infinity (AUCinf), apparent volume of distribution (V/F), apparent plasma clearance (CL/F) after extravascular administration, mean residence time (MRTlast and MRTinf), and the cumulative excretion rate from urine. The t1/2 was estimated as (ln2)/K, where K represented the slope of the terminal phase of plasma concentration-time profile and was assessed with a weighting factor of 1, using least squares (log-linear regression of at least three data points). The Cmax and tmax were obtained from experimental observations. The values of AUC were calculated using conventional trapezoidal and log-trapezoidal methods and the extrapolated area (Rowland and Tozer, [1995]). CL/F and V/F were calculated as dose/AUCinf and (CL/F)/K, respectively. MRT was calculated as MRT = AUMC/AUC, where AUMC is the area under the first moment curve. The cumulative excretion rate was calculated as the amount of unchanged drug over a time interval in the urine divided by dose, and was expressed as a percentage. The processing of urine samples was similar to that of plasma samples. […] For QC samples containing 2.00, 50.10, or 801.60 ng·mL^−1 CK were prepared using homogenic human urine with the mean bias ranged from −5.54 to 3.56%, while the CVs ranged from 1.38 to 4.89%.

[2] = Early clinical trial: sex differences of ginsenoside compound K pharmacokinetics (Supplementary Table 1); conditions: human, in vivo; for Cmax: n = 12
Experimental: Therefore, a secondary purpose of this trial is to investigate whether there are any differences in the pharmacokinetics of CK between males and females, and whether the findings are consistent with what was previously observed. This report described an open-label, single-center trial, designed as a two-period crossover study, performed on healthy Chinese subjects (n = 24) randomized to either the fasting overnight (FO) or the high-fat (HF) meal group, before receiving a single 200 mg dose of Ginsenoside CK Tablets. Consequently, this study also provides evidence for dosing regimens, for late-stage clinical studies and clinical applications. Supplementary Table 1. Sex differences of ginsenoside compound K in human (n = 12).

[3] = parameters: method as in Chen et al., [2014]; conditions: rats; ref Chen et al., [2014]; cited from earlier work
[4] = Food-effect trial: safety assessments (adverse events, vital signs, ECG, laboratory tests); type: in vivo, human
Experimental: All available information on the study participants was included in the summaries of safety assessments, and must be recorded on the case-report form by investigators. The safety assessment took place throughout the project, and it included continuous observation of adverse events (AEs), monitoring of vital signs, 12-lead ECGs, hematological and biochemical analyses, and urinalysis. Specifically, the monitoring began the night before drug administration (at least 10 h), when subjects were admitted to the clinical facility, and continued for 96 h after dosing. ECGs were recorded prior to the administration and 1, 4, 12, 24, 48, 72, and 96 h after the administration of CK, as well as during physical examinations before and after the trial. Apart from investigators' review, data were also obtained from subjects by recounting or narrating themselves. Subsequently, AEs were classified by intensity into mild, moderate, and severe. A second classification of AEs, based on the relationship of AEs to the test drug, was performed, dividing them into positive, probable, possible, remote, or unrelated.

[5] = Abnormal urine routine, possible related
[6] = Elevated creatine kinase, possible related
[7] = Elevated direct bilirubin, probable related
[8] = Elevated triglycerides, possible related
[9] = Upper respiratory tract infection, possible related

With `CC(C)=CCCC(C)(OC1OC(CO)C(O)C(O)C1O)C1CCC2(C)C1C(O)CC1C3(C)CCC(O)C(C)(C)C3CCC12C` [CK, 20-O-beta-D-glucopyranosyl-20(S)-protopanaxadiol] the Cumulative excretion rate ([1]; FO, female) was 0.083 ± 0.049%, the Cumulative excretion rate ([1]; FO, male) was 0.037 ± 0.029% and the Cumulative excretion rate ([1]; HF, all subjects) was 0.020 ± 0.015%. The Cumulative excretion rate ([1]; HF, female) was 0.019 ± 0.070%, the Cumulative excretion rate ([1]; HF, male) was 0.022 ± 0.020% and the Cumulative excretion rate ([1]; unchanged drug / dose, FO, all subjects) was 0.060 ± 0.046%. It also gave an AUC(0-inf) ([2]; female) of 4670 ± 2140 ng·h/mL, an AUC(0-t) ([2]; female) of 4490 ± 2030 ng·h/mL and a Tmax ([2]; female) of 2.58 ± 0.67 h. For the same compound, the half-life ([2]; female) was 5.66 ± 2.04 h, the Cmax ([2]; Female) was 873 ± 427 ng/mL and the Cmax ([2]; Male) was 601 ± 183 ng/mL. It also gave an AUC(0-inf) ([2]; male) of 3680 ± 1360 ng·h/mL, an AUC(0-t) ([2]; male) of 3600 ± 1320 ng·h/mL and a Tmax ([2]; male) of 3.19 ± 1.25 h. For the same compound, the half-life ([2]; male) was 4.15 ± 1.9 h, the “Dose exhibiting initial anti-inflammatory activity” value [3] was 10 mg/kg and the “Adverse events: Number of cases” value [4, 5] was 1^c. For the same compound, the “Adverse events: Percentage” value [4, 5] was 4.2%, the “Adverse events: Number of cases” value ([4]; Bellyache, positive related) was 3^a and the “Adverse events: Percentage” value ([4]; Bellyache, positive related) was 12.5%. The “Adverse events: Number of cases” value ([4]; Diarrhea, probable related) was 1^b, the “Adverse events: Percentage” value ([4]; Diarrhea, probable related) was 4.2% and the “Adverse events: Number of cases” value [4, 6] was 3^c. For the same compound, the “Adverse events: Percentage” value [4, 6] was 12.5%, the “Adverse events: Number of cases” value [4, 7] was 1^b and the “Adverse events: Percentage” value [4, 7] was 4.2%. For the same compound, the “Adverse events: Number of cases” value [4, 8] was 3^c, the “Adverse events: Percentage” value [4, 8] was 12.5% and the “Incidence of AEs classified as positive, probable and possible in relation to the test drug” value ([4]; FO regimen) was 55.6%. The “Incidence of AEs classified as positive, probable and possible in relation to the test drug” value ([4]; HF regimen) was 44.4%, the “Adverse events: Number of cases” value ([4]; Hematuria, possible related) was 1^c and the “Adverse events: Percentage” value ([4]; Hematuria, possible related) was 4.2%. The “Adverse events: Number of cases” value ([4]; Nausea, probable related) was 1^b, the “Adverse events: Percentage” value ([4]; Nausea, probable related) was 4.2% and the “Adverse events: Number of cases” value [4, 9] was 1^c. The “Adverse events: Percentage” value [4, 9] was 4.2%, the “Adverse events: Percentage” value ([4]; Watery stool, positive related) was 16.7% and the “Adverse events: Number of cases” value ([4]; Watery stool, positive related to ginsenoside compound K, 24 subjects) was 4^a. The “Intensity of AEs” value ([4]; all AEs) was “mild”, the “Instances of AEs recorded” value ([4]; both treatments) was 19 and the “Number of subjects with AEs” value ([4]; of 24 subjects) was 11. For the same compound, the “Subjects with AEs (percentage)” value ([4]; of 24 subjects, both treatments) was 45.8% and the “Abnormalities in physical examination, vital signs, ECGs, or standard clinical laboratory test results” value ([4]; single 200 mg dose) was “not associated with any clinically significant abnormalities”.
